Laboratory results from US20260306644A1, “ANTIBODY RECRUITING MOLECULES FOR THE TREATMENT OF CORONAVIRUS DISEASE-19” (priority 2023, published 2026).
Several values for one entry are separate records, joined by “and”; a condition that tells them apart may be missing. Equal values may be shown once. Read-outs that look alike come from different tables or passages of the source. Non-standard residues stand in square brackets, D forms with d. Residues, ends and D or L forms follow the SMILES beside them. No end group written: not given here. *: point of attachment. Biotin = O=C1N[C@H]2[C@H](CS[C@H]2CCCCC(=O)*)N1; PEG4 = NCCOCCOCCOCCOCCC(=O)O; Nle = CCCC[C@H](N)C(=O)O; Aib = CC(C)(N)C(=O)O

Key:
[1] = biological target: T1, SARS-CoV-2 Spike Glycoprotein RBD protein (Severe acute respiratory syndrome coronavirus 2, UniProt P0DTC2); assay: Binding of biotinylated ligands to SARS-CoV-2 Spike Glycoprotein RBD protein by ELISA
T1 construct: SARS-CoV-2 (COVID-19) S Protein RBD, His Tag; purchased Acro Biosystems SPD-C52H3
Protocol: Materials. The binding affinity of biotinylated ligands to SARS-CoV-2 Spike Glycoprotein RBD protein was determined by ELISA. The binding assay was performed using the following steps: (1) assay plates (PE B&W Isoplate 96-well Flat Bottom, High Bindi-g - Perkin Elmer 6005580) were coated with 100 ul Anti-6× His tag antibody (Anti-6× His tag Antibody; Abcam ab15149, Mouse Monoclonal; Cambridge, UK) at 5 μg/ml in PBS, incubate 1 hour at 37° C. without shaking. The plates were washed (each wash step of this assay includes four 1-minute washes with 200 ul phosphate-buffered saline-0.05% (w/v) Tween® 20 detergent (PBST)). (2) Plates were blocked with 200 ul PBST-5% BSA (PBSTB; American Bio AB01088-00100; Canton, MA), for an hour at room temperature on a plate shaker (400 rpm). The plates were washed. […] The plates were washed. (4) Ligands were added, 100 ul at a concentration range of 0.1 mM to 100 nM in PBSTB, and incubated for 1 hour at room temperature on a plate shaker (200 RPM). The plates were washed. (5) NeutrAvidin™-HRP (Invitrogen 31030; Waltham, MA) is added, 100 ul at a dilution of 1:20,000 in PBSTB, and incubated for 1 hour at room temperature on a plate shaker (200 RPM). The plates were washed. (6) SuperSignal ELISA Pico Chemiluminescent Substrate (Thermo Scientific 37069; Waltham, MA) was added and incubated for 5 minutes at room temperature on a plate shaker (200 RPM).

SARS-CoV-2 Spike protein = SARS-CoV-2 Spike protein (Severe acute respiratory syndrome coronavirus 2, UniProt P0DTC2); assay: Ternary binding of SARS-CoV-2 Spike protein (293T cells expressing Spike-GFP, IgG-AF647, flow cytometry); type: cell-based; settings: IgG-AF647 10 μg/ml, repeat values/batches listed separately
[2] = ELISA, biotinylated ligands, Spike RBD, read-out: ELISA SARS-CoV-2 Spike RBD Protein Binding EC50
[3] = 293T cells expressing Spike-GFP, read-out: SARS-CoV-2 Ternary binding EC50

| Compound | EC50 [1] | EC50 (SARS-CoV-2 Spike protein; SARS-CoV-2 Ternary binding EC50, 293T cells expressing Spike-GFP) | EC50 [1, 2] | EC50 (SARS-CoV-2 Spike protein; [3]) |
| --- | --- | --- | --- | --- |
| CC[C@H](C)[C@H](NC(=O)[C@H](CC(C)C)NC(=O)[C@H](CC(=O)O)NC(=O)[C@H](CO)NC(=O)[C@@H](NC(=O)[C@H](CCCNC(=N)N)NC(=O)[C@H](CCSC)NC(=O)[C@H](CO)NC(=O)[C@H](C)NC(=O)[C@@H]1CCCN1C(=O)[C@H](C)NC(=O)[C@H](Cc1c[nH]cn1)NC(=O)CNC(=O)[C@H](CC(C)C)NC(=O)[C@H](CCC(=O)O)NC(=O)[C@H](CC(=O)O)NC(=O)[C@H](CC(C)C)NC(=O)[C@H](CC(C)C)NC(=O)[C@H](CCCNC(=N)N)NC(=O)[C@H](CCSC)NC(=O)[C@@H](NC(=O)[C@H](CCC(=O)O)NC(=O)[C@H](Cc1ccc(O)cc1)NC(=O)[C@@H](NC(=O)[C@H](CCCCN)NC(=O)[C@H](CCC(N)=O)NC(=O)[C@H](CC(C)C)NC(=O)[C@@H](NC(=O)[C@H](Cc1c[nH]c2ccccc12)NC(=O)[C@H](CCC(=O)O)NC(=O)[C@H](CCCCN)NC(=O)[C@H](CC(=O)O)NC(=O)CCOCCOCCOCCOCCNC(=O)CCCC[C@@H]1SC[C@@H]2NC(=O)N[C@@H]21)[C@@H](C)CC)[C@@H](C)CC)[C@@H](C)CC)C(C)C)C(=O)N[C@@H](Cc1ccc(O)cc1)C(=O)N[C@@H](CCC(=O)O)C(=O)N[C@@H](Cc1ccccc1)C(=O)N[C@@H](CCSC)C(=O)N[C@@H](CCCCN)C(=O)N[C@@H](CCCCN)C(=O)NCC(=O)N[C@@H](CC(=O)O)C(=O)N[C@@H](CCC(=O)O)C(=O)N[C@@H](CCCNC(=N)N)C(=O)N[C@@H](CC(C)C)C(=O)N[C@@H](CC(C)C)C(=O)N[C@@H](CCC(=O)O)C(=O)N[C@@H](CCC(=O)O)C(=O)N[C@@H](C)C(=O)N[C@@H](CCC(=O)O)C(=O)N[C@@H](CCCNC(=N)N)C(=O)N[C@@H](CC(C)C)C(=O)N[C@@H](CC(C)C)C(=O)N[C@@H](CCC(=O)O)C(=O)N[C@@H](CCC(=O)O)C(=O)N[C@H](C(=O)N[C@@H](CCC(=O)O)C(=O)N[C@@H](CCCNC(=N)N)C(N)=O)C(C)C [Compound 187] | 0.37 nM | 0.07 nM | – | – |
| CC[C@H](C)[C@H](NC(=O)[C@H](CC(C)C)NC(=O)[C@H](CC(=O)O)NC(=O)[C@H](CO)NC(=O)[C@@H](NC(=O)[C@H](CCCNC(=N)N)NC(=O)[C@H](CCSC)NC(=O)[C@H](CO)NC(=O)[C@H](C)NC(=O)[C@@H]1CCCN1C(=O)[C@H](C)NC(=O)[C@H](Cc1c[nH]cn1)NC(=O)CNC(=O)[C@H](CC(C)C)NC(=O)[C@H](CCC(=O)O)NC(=O)[C@H](CC(=O)O)NC(=O)[C@H](CC(C)C)NC(=O)[C@H](CC(C)C)NC(=O)[C@H](CCCNC(=N)N)NC(=O)[C@H](CCSC)NC(=O)[C@@H](NC(=O)[C@H](CCC(=O)O)NC(=O)[C@H](Cc1ccc(O)cc1)NC(=O)[C@@H](NC(=O)[C@H](CCCCN)NC(=O)[C@H](CCC(N)=O)NC(=O)[C@H](CC(C)C)NC(=O)[C@@H](NC(=O)[C@H](Cc1c[nH]c2ccccc12)NC(=O)[C@H](CCC(=O)O)NC(=O)[C@H](CCCCN)NC(=O)[C@H](CC(=O)O)NC(=O)[C@H](CO)NC(=O)CCOCCOCCOCCOCCNC(=O)CCCC[C@@H]1SC[C@@H]2NC(=O)N[C@@H]21)[C@@H](C)CC)[C@@H](C)CC)[C@@H](C)CC)C(C)C)C(=O)N[C@@H](Cc1ccc(O)cc1)C(=O)N[C@@H](CCC(=O)O)C(=O)N[C@@H](Cc1ccccc1)C(=O)N[C@@H](CCSC)C(=O)N[C@@H](CCCCN)C(=O)N[C@@H](CCCCN)C(=O)NCC(N)=O [Compound 193] ({Biotin-PEG4}-SDKEWILQKIYEIMRLLDELGHAPASMRVSDLIYEFMKKG-NH2) | – | – | 4.6 nM | 2.3 nM and 0.24 nM |
| CC[C@H](C)[C@H](NC(=O)[C@H](CC(C)C)NC(=O)[C@H](CC(=O)O)NC(=O)[C@H](CO)NC(=O)[C@@H](NC(=O)[C@H](CCCNC(=N)N)NC(=O)[C@H](CCSC)NC(=O)[C@H](CO)NC(=O)[C@H](C)NC(=O)[C@H](CCC(=O)O)NC(=O)[C@H](C)NC(=O)[C@H](Cc1c[nH]cn1)NC(=O)CNC(=O)[C@H](CC(C)C)NC(=O)[C@H](CCC(=O)O)NC(=O)[C@H](CC(=O)O)NC(=O)[C@H](CC(C)C)NC(=O)[C@H](CC(C)C)NC(=O)[C@H](CCCNC(=N)N)NC(=O)[C@H](CCSC)NC(=O)[C@@H](NC(=O)[C@H](CCC(=O)O)NC(=O)[C@H](Cc1ccc(O)cc1)NC(=O)[C@@H](NC(=O)[C@H](CCCCN)NC(=O)[C@H](CCC(N)=O)NC(=O)[C@H](CC(C)C)NC(=O)[C@@H](NC(=O)[C@H](Cc1c[nH]c2ccccc12)NC(=O)[C@H](CCC(=O)O)NC(=O)[C@H](CCCCN)NC(=O)[C@H](CC(=O)O)NC(=O)[C@H](CO)NC(=O)C(C)(C)NC(=O)CCOCCOCCOCCOCCNC(=O)CCCC[C@@H]1SC[C@@H]2NC(=O)N[C@@H]21)[C@@H](C)CC)[C@@H](C)CC)[C@@H](C)CC)C(C)C)C(=O)N[C@@H](Cc1ccc(O)cc1)C(=O)N[C@@H](CCC(=O)O)C(=O)N[C@@H](Cc1ccccc1)C(=O)N[C@@H](CCSC)C(=O)N[C@@H](CCCCN)C(=O)N[C@@H](CCCCN)C(=O)N[C@H](C)C(=O)O [Compound 214] | – | – | 0.78 nM | – |
| CC[C@H](C)[C@H](NC(=O)[C@H](CC(C)C)NC(=O)[C@H](CC(=O)O)NC(=O)[C@H](CO)NC(=O)[C@@H](NC(=O)[C@H](CCCNC(=N)N)NC(=O)[C@H](CCSC)NC(=O)[C@H](CO)NC(=O)[C@H](C)NC(=O)[C@H](CCC(=O)O)NC(=O)[C@H](C)NC(=O)[C@H](Cc1c[nH]cn1)NC(=O)CNC(=O)[C@H](CC(C)C)NC(=O)[C@H](CCC(=O)O)NC(=O)[C@H](CC(=O)O)NC(=O)[C@H](CC(C)C)NC(=O)[C@H](CC(C)C)NC(=O)[C@H](CCCNC(=N)N)NC(=O)[C@H](CCSC)NC(=O)[C@@H](NC(=O)[C@H](CCC(=O)O)NC(=O)[C@H](Cc1ccc(O)cc1)NC(=O)[C@@H](NC(=O)[C@H](CCCCN)NC(=O)[C@H](CCC(N)=O)NC(=O)[C@H](CC(C)C)NC(=O)[C@@H](NC(=O)[C@H](Cc1c[nH]c2ccccc12)NC(=O)[C@H](CCC(=O)O)NC(=O)[C@H](CCCCN)NC(=O)[C@H](CC(=O)O)NC(=O)[C@H](CO)NC(=O)C(C)(C)NC(=O)CCOCCOCCOCCOCCNC(=O)CCCC[C@@H]1SC[C@@H]2NC(=O)N[C@@H]21)[C@@H](C)CC)[C@@H](C)CC)[C@@H](C)CC)C(C)C)C(=O)N[C@@H](Cc1ccc(O)cc1)C(=O)N[C@@H](CCC(=O)O)C(=O)N[C@@H](Cc1ccccc1)C(=O)N[C@@H](CCSC)C(=O)N[C@@H](CCCCN)C(=O)N[C@@H](CCCCN)C(=O)N[C@H](Cc1ccccc1)C(=O)O [Compound 216] | – | – | 1.11 nM | 0.46 nM |
| CCCC[C@H](NC(=O)[C@H](CCC(=O)O)NC(=O)[C@H](CC(=O)O)NC(=O)[C@H](CC(C)C)NC(=O)[C@H](CC(C)C)NC(=O)[C@H](CCCNC(=N)N)NC(=O)[C@H](CCSC)NC(=O)[C@@H](NC(=O)[C@H](CCC(=O)O)NC(=O)[C@H](Cc1ccc(O)cc1)NC(=O)[C@@H](NC(=O)[C@H](CCCCN)NC(=O)[C@H](CCC(N)=O)NC(=O)[C@H](CC(C)C)NC(=O)[C@@H](NC(=O)[C@H](Cc1c[nH]c2ccccc12)NC(=O)[C@H](CCC(=O)O)NC(=O)[C@H](CCCCN)NC(=O)[C@H](CC(=O)O)NC(=O)CCOCCOCCOCCOCCNC(=O)CCCC[C@@H]1SC[C@@H]2NC(=O)N[C@@H]21)[C@@H](C)CC)[C@@H](C)CC)[C@@H](C)CC)C(=O)N[C@H](Cc1c[nH]cn1)C(=O)N[C@@H](Cc1c[nH]cn1)C(=O)N[C@@H](C)C(=O)N[C@@H](CCC(=O)O)C(=O)N[C@@H](C)C(=O)N[C@@H](CO)C(=O)N[C@@H](CCSC)C(=O)N[C@@H](CCCNC(=N)N)C(=O)N[C@H](C(=O)N[C@@H](CO)C(=O)N[C@@H](CC(=O)O)C(=O)N[C@@H](CC(C)C)C(=O)N[C@H](C(=O)N[C@@H](Cc1ccc(O)cc1)C(=O)N[C@@H](CCC(=O)O)C(=O)N[C@@H](Cc1ccccc1)C(=O)N[C@@H](CCSC)C(=O)N[C@@H](CCCCN)C(=O)N[C@@H](CCCCN)C(=O)NCC(=O)O)[C@@H](C)CC)C(C)C [Compound 222] | – | – | 0.79 nM | 0.02 nM |
| {Biotin-PEG4}-[Aib]SDKEWILQKIYEI[Nle]RLLDELGHAEAS[Nle]RVSDLIY[Aib]FMK[Aib]G [Compound 220] | – | – | 2.55 nM | – |
